Test results from patent US6906048B2, “N-acetylcolchinol-O-phosphate combination therapies with vascular damaging activity” (AstraZeneca AB, priority 2000, dated 2005).

What was measured:
[1] = test system: murine adenocarcinoma CaNT tumour; test: CaNT tumour model, ZD6126 and cisplatin, second study (tumour growth delay); assay type: in vivo; details: study 2, female CBA mice; ZD6126 100 + 100 mg/kg i.p. 2 h apart on days 0, 4, 7, 11; cisplatin 5 mg/kg i.p. days 0 and 7
Method: ZD6126 alone was dosed on days 0, 4, 7 and 11 using a split dose regimen of ZD6126 100 mg/kg i.p., followed by a 2 hour interval, followed by a further 100 mg/kg ZD6126 i.p.. Cisplatin alone was dosed at 5 mg/kg i.p on day 0 and day 7.
The combination treatment consisted of: • Days 0 and 7: ZD6126 100 mg/kg i.p., followed by a 2 hour interval, followed by a further 100 mg/kg ZD6126 i.p.; cisplatin given 10 minutes before first ZD6126 dose. • Days 3, 7 and 10: ZD6126 100 mg/kg i.p., followed by a 2 hour interval, followed by a further 100 mg/kg ZD6126 i.p..

murine KHT sarcoma [2] = test: KHT sarcoma tumour model, cisplatin plus ZD6126 (tumour cell survival, excision and colony formation); assay type: in vivo, mice; details: 10 mg/kg cisplatin i.p. alone, assessed 24 hours later
Method: In the murine KHT sarcoma model (Lingyun Li, B. S. et al, Int. J. Radiation Oncology Biol. Phys 42, 899-903, 1998) tumours were treated with either 10 mg/kg cisplatin i.p. alone or 10 mg/kg cisplatin plus ZD6126 (10-100 mg/kg i.p.), cisplatin given 1 hour prior to ZD6126. The effects of the treatments on tumour cell survival was assessed 24 hours later by excising the tumour, disaggregating the cells and determining the number of colonies formed after 10-14 days. Surviving fraction compared to untreated cells was then determined.

[3] = test system: murine adenocarcinoma CaNT tumour; test: CaNT tumour model, ZD6126 and cisplatin, first study (tumour growth delay); assay type: in vivo; details: study 1, female CBA mice; ZD6126 100 + 100 mg/kg i.p. 2 h apart on days 0, 2, 4; cisplatin 5 mg/kg i.p. day 0
Method: ZD6126 alone was dosed on days 0, 2 and 4 using a split dose regimen of 100 mg/kg ZD6126, followed by a 2 hour interval, followed by a further 100 mg/kg ZD6126; doses were given intraperitoneally (i.p.).
Cisplatin (David Bull Laboratories) alone was dosed at 5 mg/kg i.p on day 0.
The combination treatment consisted of: • Day 0: ZD6126 100 mg/kg i.p., followed by a 2 hour interval, followed by a further 100 mg/kg ZD6126 i.p; and cisplatin 5 mg/kg given 10 minutes before first ZD6126 dose. • Days 2 and 4: ZD6126 100 mg/kg i.p., followed by a 2 hour interval, followed by a further 100 mg/kg ZD6126 i.p.

[4] = test system: human Calu 6 tumour cells; test: Calu 6 tumour model, ZD6126 and cisplatin (tumour growth delay); assay type: in vivo; details: athymic nude mice; ZD6126 100 mg/kg i.p. daily x5 (days 0-4 alone, days 1-5 in combination); cisplatin 4 mg/kg i.p. day 0
Method: In a second tumour model, Calu 6, the advantage of combining ZD6126 and cisplatin (cis-Platinum(lI)Diammine Dichloride—Sigma P-4394) was confirmed. Athymic nude mice were implanted subcutaneously with 1×10^6 human Calu 6 tumour cells (obtained from American Type Culture Collection, 10801 University Boulevard, Manassas, Va. 20110-2209 Cat. no. HTB-56) and tumours allowed to grow until they were approximately 9 mm in diameter.
Groups of 10 tumour bearing mice were then treated as follows: • ZD6126 alone was dosed 100 mg/kg i.p. on days 0, 1, 2, 3, 4. • Cisplatin alone was dosed 4 mg/kg i.p. on day 0.
In the combination arm cisplatin 4 mg/kg i.p. was dosed on day 0, and ZD6126 100 mg/kg i.p. was dosed on days 1, 2, 3, 4 and 5.

[5] = test system: murine adenocarcinoma CaNT tumour; test: Cell survival assay, CaNT tumour model: effect of dosage interval; assay type: in vivo, mice; details: two doses of 100 mg/kg i.p. separated by 2, 3 or 4 hours; tumours excised about 18 hours after treatment
Method: (§1) In vivo cell survival was measured using an excision assay (D J Chaplin et al., Anticancer Research 19: 189-196 (1999)).
(§2) Tumours were excised at about 18 hours after treatment, weighed and disaggregated for 1 hour at 37 degrees Celsius in an enzyme cocktail containing 1 mg/ml pronase, 0.5 mg/ml DNAase and 0.5 mg/ml collagenase. Haemocytometer counts of trypan blue-excluding cells were made and viable cells seeded in appropriate concentrations to yield about 50 colonies/dish after in vitro incubation. Heavily irradiated feeder cells (V79 cells) were used at a concentration of 25,000/ml to support the growth of the surviving CaNT cells. The data were calculated as surviving fraction per gram of tumour.
(§3) ZD6126 was administered as a single dose of […] intra-peritoneally (i.p.) in saline with a small amount of 1% sodium carbonate added to aid the dissolution of ZD6126.
ZD6126 was dosed using a split dose regimen of 100 mg/kg ZD6126, followed by a time interval, followed by a further 100 mg/kg ZD6126; doses were given intraperitoneally (i.p.) in saline with a small amount of 1% sodium carbonate added to aid the dissolution of ZD6126. The time intervals used were 1, 2, 3, 4 and 6 hours.

murine KHT sarcoma [6] = test: KHT sarcoma tumour model, ZD6126 and radiation (tumour cell survival, excision and colony formation); assay type: in vivo, mice
Method: The murine KHT sarcoma grown in C3H mice was also used to confirm the advantage of combining ZD6126 and radiation. Tumours were treated with either radiation alone (0, 5, 10, 15 or 20 Gy single dose), ZD6126 100 mg/kg i.p., or radiation followed 1 hour later by ZD6126 100 mg/kg i.p.. The effects of either radiation alone, ZD6126 alone or the combination on tumour cell survival was assessed 24 hours later by excising the tumour, disaggregating the cells and determining the number of colonies formed after 10-14 days. Surviving fraction compared to untreated cells was then determined.

[7] = test system: murine adenocarcinoma CaNT tumour; test: Cell survival assay, CaNT tumour model: effect of dosage interval and split dose proportions; assay type: in vivo, mice
Method: as §1, §2
This improved effect varied with the proportion of total dose given in the first and second doses.
as §3
ZD6126 was dosed using split dose regimens of: • i) 25 mg/kg ZD6126, followed by a 2 hour interval, followed by a further 175 mg/kg ZD6126; • ii) 50 mg/kg ZD6126, followed by a 2 hour interval, followed by a further 150 mg/kg ZD6126; • iii) 100 mg/kg ZD6126, followed by a 2 hour interval, followed by a further 100 mg/kg ZD6126; • iv) 150 mg/kg ZD6126, followed by a 2 hour interval, followed by a further 50 mg/kg ZD6126; • v) 175 mg/kg ZD6126, followed by a 2 hour interval, followed by a further 25 mg/kg ZD6126; All doses were given intraperitoneally (i.p.) in saline with a small amount of 1% sodium carbonate added to aid the dissolution of ZD6126.

Structure (SMILES) | Mean growth delay (vs control) - days [1] | cell killing (murine KHT sarcoma [2]) | Mean growth delay (vs control) - days [3] | growth delay (time to reach 2× starting volume) compared to control tumours [4] | surviving fraction of tumour cells, divided doses compared with single dose [5] | enhanced cell killing over controls (murine KHT sarcoma [6]; ZD6126 alone with no radiation) | Plus ZD6126 % cell survival (murine KHT sarcoma [6]; radiation dose 0 Gy, ZD6126 100 mg/kg i.p., C3H mice, 24 hours later) | Plus ZD6126 % cell survival (murine KHT sarcoma [6]; radiation dose 5 Gy followed 1 hour later by ZD6126 100 mg/kg i.p.) | Plus ZD6126 % cell survival (murine KHT sarcoma [6]; radiation dose 10 Gy followed 1 hour later by ZD6126 100 mg/kg i.p.) | Plus ZD6126 % cell survival (murine KHT sarcoma [6]; radiation dose 15 Gy followed 1 hour later by ZD6126 100 mg/kg i.p.) | split dose proportion giving the best anti-tumour effect ([7]; regimen iii) 100 mg/kg + 100 mg/kg, 2 hour interval) | significance of the greater effect of divided doses over a single dose ([7]; regimens i) 25+175, iii) 100+100 or iv) 150+50 mg/kg, 2 hour interval) | anti-tumour effect, as measured by surviving fraction of tumour cells, divided doses compared with single dose ([7]; total 200 mg/kg i.p. in two doses 2 hours apart, regimens i) to v))
[NH2][Pt]([NH2])([Cl])[Cl] [Cisplatin, cis-Platinum(lI)Diammine Dichloride] | 7.7 days | approximately 98% | 2.1 days | 6.0 days | – | – | – | – | – | – | – | – | –
COc1cc2c(c(OC)c1OC)-c1ccc(OP(=O)(O)O)cc1[C@@H](NC(C)=O)CC2 [ZD6126, (5S)-5-(acetylamino)-9,10,11-trimethoxy-6,7-dihydro-5H-dibenzo[a,c]cyclohepten-3-yl dihydrogen phosphate] | – | – | – | – | significantly more effective in this model than a single 200 mg/kg dose | 40 fold | 2.5% | 0.16% | 0.015% | 0.0016% | best effect was seen with equal split doses | significant | greater with divided doses of ZD6126 than with a single dose of 200 mg/kg ZD6126
